Test results: US10800792B2, “Inhibitors of Bruton's tyrosine kinase and method of their use” (JANSSEN PHARMACEUTICA NV, priority 2015, dated 2020)
Read-outs that look alike come from different tables or passages of the source.

Biological target: unphosphorylated-BTK kinase domain (UP-BTK), GST-tagged human BTK (389-659aa) (Homo sapiens (Human), UniProt Q06187)
Assay: BTK kinase Lanthascreen binding assay
Conditions: pIC50 = negative log of the IC50 in molar; for IC50: read-out: BTK_I_binding pIC50 (converted)
Method in brief: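 A fluorescent tracer is bound to unphosphorylated BTK; test compound is added to compete it off; the Lanthascreen signal is read and IC50 is fitted, then reported as its negative log in molar.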

[1] = 60 minutes incubation, 50 nM Tracer 236
[2] = Lanthascreen tracer competition, 60 minutes incubation
[3] = unphosphorylated-BTK kinase domain, 50 nM Tracer 236, 60 minutes

Chain of unphosphorylated-BTK kinase domain (UP-BTK), GST-tagged human BTK (389-659aa) (Q06187 389-659): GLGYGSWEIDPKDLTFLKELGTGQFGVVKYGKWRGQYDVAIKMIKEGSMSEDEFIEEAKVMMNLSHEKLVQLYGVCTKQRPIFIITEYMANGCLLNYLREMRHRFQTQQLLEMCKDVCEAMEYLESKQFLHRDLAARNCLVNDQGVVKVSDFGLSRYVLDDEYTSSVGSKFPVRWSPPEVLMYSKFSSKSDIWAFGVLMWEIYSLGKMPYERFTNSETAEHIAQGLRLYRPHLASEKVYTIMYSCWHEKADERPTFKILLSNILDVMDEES

Row | Compound | BTK_I_binding pIC50 [3] | other results
1 | Cc1cc(Oc2ccccc2)ccc1N1C(=O)Nc2c(C(=O)NC3CC[C@@H](C)NC3)sc3nccc1c23 (mixture of isomers) [Example 173, 5-(2-Methyl-4-phenoxyphenyl)-N-((6R)-6-methylpiperidin-3-yl)-4-oxo-4,5-dihydro-3H-1-thia-3,5,8-triazaacenaphthylene-2-carboxamide] |  | IC50 [1]: 158 nM
2 | Cc1cc(OCCOC(C)C)ccc1N1C(=O)Nc2c(C(=O)N[C@@H]3CCCNC3)sc3nccc1c23 [Example 730, (R)-5-(4-(2-Isopropoxyethoxy)-2-methylphenyl)-4-oxo-N-(piperidin-3-yl)-4,5-dihydro-3H-1-thia-3,5,8-triazaacenaphthylene-2-carboxamide] |  | IC50 [2]: > 1000 nM
3 | O=C(N[C@@H]1CNCC[C@H]1O)c1sc2nccc3c2c1NC(=O)N3c1ccc(Oc2ccccc2)cc1 [Example 658, N-((3R,4R)-4-Hydroxypiperidin-3-yl)-4-oxo-5-(4-phenoxyphenyl)-4,5-dihydro-3H-1-thia-3,5,8-triazaacenaphthylene-2-carboxamide] |  | BTK_I_binding pIC50 [2]: 6.6
4 | Cc1cc(Oc2ccccc2)ccc1N1C(=O)Nc2c(C(=O)N[C@@H]3CCN(C(=O)/C=C/CN4C[C@@H]5OCCO[C@@H]5C4)C3)sc3nccc1c23 (single isomer, unassigned) [Example 555, 5-(*S)-(2-Methyl-4-phenoxyphenyl)-4-oxo-N—((R)-1-((E)-4-((4aR,7aS)-tetrahydro-2H-[1,4]dioxino[2,3-c]pyrrol-6(3H)-yl)but-2-enol)pyrrolidin-3-yl)-4,5-dihydro-3H-1-thia-3,5,8-triazaacenaphthylene-2-carboxamide] | 8.1 | 
5 | C=CC(=O)N1CCC[C@@H](NC(=O)c2sc3nccc4c3c2NC(=O)N4c2cncc(-c3ccccc3)c2)C1 [Example 537, (R)—N-(1-Acryloylpiperidin-3-yl)-4-oxo-5-(5-phenylpyridin-3-yl)-4,5-dihydro-3H-1-thia-3,5,8-triazaacenaphthylene-2-carboxamide] | 7.6 | 
6 | C=CC(=O)N1CC[C@@H](NC(=O)c2sc3nccc4c3c2NC(=O)N4c2ccc(OC3CCOCC3)cc2C)C1 [Example 270, (R)—N-(1-Acryloylpyrrolidin-3-yl)-5-(2-methyl-4-((tetrahydro-2H-pyran-4-yl)oxy)phenyl)-4-oxo-4,5-dihydro-3H-1-thia-3,5,8-triazaacenaphthylene-2-carboxamide] |  | BTK_I_binding pIC50 [1]: 6.3
7 | C=CC(=O)N1C[C@H](NC(=O)c2sc3nccc4c3c2NC(=O)N4c2ccc(Oc3ccccc3)cc2C)[C@@H](O)C1 (relative stereo) [Example 523, N-((3S,4S)-1-Acryloyl-4-hydroxypyrrolidin-3-yl)-5-(*S)-(2-methyl-4-phenoxyphenyl)-4-oxo-4,5-dihydro-3H-1-thia-3,5,8-triazaacenaphthylene-2-carboxamide] | 7.5 | 
8 | Cc1cc(Oc2ccc(F)cc2)ccc1N1C(=O)Nc2c(C(=O)N[C@@H]3CCCN(C)C3)sc3nccc1c23 [Example 295, (R)-5-(4-(4-Fluorophenoxy)-2-methylphenyl)-N-(1-methylpiperidin-3-yl)-4-oxo-4,5-dihydro-3H-1-thia-3,5,8-triazaacenaphthylene-2-carboxamide] | 6.1 | 
9 | C=CC(=O)N[C@H]1COC[C@H]1NC(=O)c1sc2nccc3c2c1NC(=O)N3c1cnc(Oc2ccccc2)cc1C (single isomer, unassigned) [Example 745, N-((3*S,4*R)-4-Acrylamidotetrahydrofuran-3-yl)-5-(*S)-(4-methyl-6-phenoxypyridin-3-yl)-4-oxo-4,5-dihydro-3H-1-thia-3,5,8-triazaacenaphthylene-2-carboxamide] |  | IC50 [2]: 7.94 nM
10 | Cc1cc(Oc2ccccc2)ccc1N1C(=O)Nc2c(C(=O)N[C@@H]3CNC(=O)C3)sc3nccc1c23 (single isomer, unassigned) [Example 469, (*S)-5-(*S)-(2-Methyl-4-phenoxyphenyl)-4-oxo-N-(5-oxopyrrolidin-3-yl)-4,5-dihydro-3H-1-thia-3,5,8-triazaacenaphthylene-2-carboxamide] | 7.1 | 
